From patent US20120270237A9, “METHODS FOR THE IDENTIFICATION OF KINASE INTERACTING MOLECULES AND FOR THE PURIFICATION OF KINASE PROTEINS” (Cellzone AG, priority 2009, published 2012)

How the values were obtained:
Assay in all cases: Kinobeads competition binding, HL60 cell lysate
Parameters in all cases: endogenous in cells
Settings in all cases: 10 μM free compound
PKD3 = molecular target: T1, PKD3 (Homo sapiens, UniProt O94806)
T1 sequence (O94806 1-890): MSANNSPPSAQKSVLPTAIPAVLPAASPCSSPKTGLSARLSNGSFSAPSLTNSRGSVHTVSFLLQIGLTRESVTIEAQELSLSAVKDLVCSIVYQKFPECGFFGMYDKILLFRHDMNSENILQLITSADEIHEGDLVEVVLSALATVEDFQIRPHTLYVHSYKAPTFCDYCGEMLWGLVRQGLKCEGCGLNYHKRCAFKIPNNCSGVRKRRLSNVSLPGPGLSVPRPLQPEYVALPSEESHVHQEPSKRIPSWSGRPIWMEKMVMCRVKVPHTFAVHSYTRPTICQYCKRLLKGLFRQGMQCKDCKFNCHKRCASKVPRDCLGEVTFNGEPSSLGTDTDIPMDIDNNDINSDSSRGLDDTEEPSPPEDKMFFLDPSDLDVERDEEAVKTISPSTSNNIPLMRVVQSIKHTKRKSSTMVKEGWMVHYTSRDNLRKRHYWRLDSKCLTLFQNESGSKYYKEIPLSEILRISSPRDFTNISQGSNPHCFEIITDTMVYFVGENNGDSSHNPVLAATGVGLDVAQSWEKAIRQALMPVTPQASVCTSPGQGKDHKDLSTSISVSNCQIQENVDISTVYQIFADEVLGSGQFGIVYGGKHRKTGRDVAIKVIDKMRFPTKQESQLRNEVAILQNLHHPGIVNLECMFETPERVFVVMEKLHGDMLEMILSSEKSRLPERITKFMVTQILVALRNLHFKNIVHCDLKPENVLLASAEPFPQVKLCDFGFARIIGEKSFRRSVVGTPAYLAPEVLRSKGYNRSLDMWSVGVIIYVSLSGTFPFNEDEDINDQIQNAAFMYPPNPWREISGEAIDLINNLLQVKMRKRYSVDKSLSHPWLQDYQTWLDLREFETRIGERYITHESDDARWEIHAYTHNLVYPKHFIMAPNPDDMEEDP
Description: (§1) To one aliquot of cell lysate 10 μM of the free compound (FIG. 3, CZC31326) was added and allowed to bind to proteins in the lysate. Then the affinity matrix with the immobilized compound (Example 1) was added to capture proteins that were not interacting with the previously added free compound. Beads were separated from the lysate and bead bound proteins were eluted in SDS sample buffer and subsequently separated by SDS-Polyacrylamide gel electrophoresis (FIG. 4). Suitable gel bands were cut out and subjected to in-gel proteolytic digestion with trypsin. The second lysate aliquot was processed identically, however no free compound was added (DMSO solvent control). Peptides originating from samples 1 and 2 were labeled with iTRAQ reagents (iTRAQ 114 and iTRAQ 117) and the combined samples were analyzed with a nano-flow liquid chromatography system coupled online to a tandem mass spectrometer (LC-MS/MS) experiment followed by iTRAQ reporter ion quantification in the MS/MS spectra (Ross et al., 2004. Mol. Cell. Proteomics 3(12):1154-1169). Further experimental protocols can be found in WO2006/134056 and a previous publication (Bantscheff et al., 2007. Nature Biotechnology 25, 1035-1044). Sepharose-beads with the immobilized compound (100 μl beads per pull-down experiment) were equilibrated in lysis buffer and incubated with a cell lysate sample containing 50 mg of protein on an end-over-end shaker (Roto Shake Genie, Scientific Industries Inc.) for 2 hours at 4° C. Beads were collected, transferred to Mobicol-columns (MoBiTech 10055) and washed with 10 ml lysis buffer containing 0.4% NP40 detergent, followed by 5 ml lysis buffer containing 0.2% detergent. To elute bound proteins, 60 μl 2×SDS sample buffer was added to the column. The column was incubated for 30 minutes at 50° C. and the eluate was transferred to a siliconized microfuge tube by centrifugation. Proteins were then alkylated with 108 mM iodoacetamid. Proteins were then separated by SDS-Polyacrylamide electrophoresis (SDS-PAGE). The peptide extracts of samples treated with 10 μM of free compound (CZC31326) and the solvent control (0.5% DMSO) were treated with different variants of the isobaric tagging reagent (iTRAQ Reagents Multiplex Kit, part number 4352135, Applied Biosystems, Foster City, Calif., USA). The iTRAQ reagents are a set of multiplexed, amine-specific, stable isotope reagents that can label peptides on amino groups in up to four different biological samples enabling simultaneous identification and quantitation of peptides. The iTRAQ reagents were used according to instructions provided by the manufacturer. The samples were resuspended in 10 μl 50 mM TEAB solution, pH 8.5 and 10 μl ethanol were added. The iTRAQ reagent was dissolved in 120 μl ethanol and 10 μl of reagent solution were added to the sample. The labeling reaction was performed at room temperature for one hour on a horizontal shaker and stopped by adding 5 μl of 100 mM TEAB and 100 mM glycine in water. The two labeled sampled were then combined, dried in a vacuum centrifuge and resuspended in 10 μl of 0.1% formic acid in water. Relative protein quantitation was performed using peak areas of iTRAQ reporter ion signals essentially as described in an earlier publication (Bantscheff et al., 2007. Nature Biotechnology 25, 1035-1044).

PLK4 = PLK4 (Homo sapiens, UniProt O00444)
Sequence of PLK4 (O00444 whole entry): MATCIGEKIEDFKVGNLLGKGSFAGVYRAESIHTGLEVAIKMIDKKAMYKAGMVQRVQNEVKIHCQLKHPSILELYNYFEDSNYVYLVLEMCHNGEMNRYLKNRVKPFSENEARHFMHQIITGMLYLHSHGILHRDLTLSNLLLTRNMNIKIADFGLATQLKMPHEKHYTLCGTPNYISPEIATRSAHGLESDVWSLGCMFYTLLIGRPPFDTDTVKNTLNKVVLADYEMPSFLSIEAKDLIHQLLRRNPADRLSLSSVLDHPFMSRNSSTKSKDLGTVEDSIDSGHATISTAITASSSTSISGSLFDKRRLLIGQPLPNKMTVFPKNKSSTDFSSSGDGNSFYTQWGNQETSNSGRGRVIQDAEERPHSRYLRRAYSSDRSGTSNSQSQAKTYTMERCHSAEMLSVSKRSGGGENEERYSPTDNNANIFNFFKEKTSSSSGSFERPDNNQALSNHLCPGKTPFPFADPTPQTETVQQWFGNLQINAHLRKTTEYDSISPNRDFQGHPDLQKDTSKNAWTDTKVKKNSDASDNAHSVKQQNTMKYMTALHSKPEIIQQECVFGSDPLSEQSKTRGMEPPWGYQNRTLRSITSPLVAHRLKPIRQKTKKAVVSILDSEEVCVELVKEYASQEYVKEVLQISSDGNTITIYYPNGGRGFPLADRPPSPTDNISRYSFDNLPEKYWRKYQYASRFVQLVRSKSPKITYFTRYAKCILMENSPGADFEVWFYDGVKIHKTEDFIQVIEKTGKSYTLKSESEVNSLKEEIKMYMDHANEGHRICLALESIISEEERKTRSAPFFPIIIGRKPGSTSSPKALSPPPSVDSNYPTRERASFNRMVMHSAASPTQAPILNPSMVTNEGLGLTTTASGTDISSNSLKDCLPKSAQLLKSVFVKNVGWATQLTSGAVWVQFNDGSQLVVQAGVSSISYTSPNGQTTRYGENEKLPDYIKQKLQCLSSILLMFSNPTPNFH
Description: as §1

PKCa = PKCa (Homo sapiens, UniProt P17252)
Description: as §1

MST1 = molecular target: T2, MST1 (Homo sapiens, UniProt Q13043)
T2 sequence (Q13043 1-487): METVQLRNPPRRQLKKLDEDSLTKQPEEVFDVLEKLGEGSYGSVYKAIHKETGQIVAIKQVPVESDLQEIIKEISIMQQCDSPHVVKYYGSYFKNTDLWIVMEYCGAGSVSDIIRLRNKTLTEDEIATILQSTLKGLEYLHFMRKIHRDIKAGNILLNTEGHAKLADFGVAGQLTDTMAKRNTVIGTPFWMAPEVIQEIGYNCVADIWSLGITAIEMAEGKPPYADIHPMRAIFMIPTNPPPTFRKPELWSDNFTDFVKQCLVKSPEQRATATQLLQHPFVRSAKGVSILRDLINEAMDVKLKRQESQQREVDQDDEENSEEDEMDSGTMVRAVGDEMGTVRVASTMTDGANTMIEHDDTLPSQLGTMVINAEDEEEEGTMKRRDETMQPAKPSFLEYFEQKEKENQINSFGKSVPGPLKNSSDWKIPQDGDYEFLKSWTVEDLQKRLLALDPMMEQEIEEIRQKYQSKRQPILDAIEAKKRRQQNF
Description: as §1

inhibition at 10 µM (PKD3): 96.9%
inhibition at 10 µM (PLK4): 91.7%
inhibition at 10 µM (PKCa): 96.2%
Competition % (MST1): 97.7%
Compound: CS(=O)(=O)Nc1ccccc1Nc1nc(Nc2cccc(OCCN)c2)ncc1Cl [CZC31326, N-(2-(2-(3-(2-aminoethoxy)phenylamino)-5-chloropyrimidin-4-ylamino)phenyl)methanesulfonamide]
